Legend:
[1] = molecular target: T1, D(2) dopamine receptor (Homo sapiens, UniProt P14416); assay: Displacement of [125I]IABN from human dopamine D2L receptor expressed in HEK293 cells; type: cell-based
[2] = molecular target: T2, D(4) dopamine receptor (Homo sapiens, UniProt P21917); assay: Displacement of [125I]IABN from human dopamine D4 receptor
T2 sequence (P21917 whole entry): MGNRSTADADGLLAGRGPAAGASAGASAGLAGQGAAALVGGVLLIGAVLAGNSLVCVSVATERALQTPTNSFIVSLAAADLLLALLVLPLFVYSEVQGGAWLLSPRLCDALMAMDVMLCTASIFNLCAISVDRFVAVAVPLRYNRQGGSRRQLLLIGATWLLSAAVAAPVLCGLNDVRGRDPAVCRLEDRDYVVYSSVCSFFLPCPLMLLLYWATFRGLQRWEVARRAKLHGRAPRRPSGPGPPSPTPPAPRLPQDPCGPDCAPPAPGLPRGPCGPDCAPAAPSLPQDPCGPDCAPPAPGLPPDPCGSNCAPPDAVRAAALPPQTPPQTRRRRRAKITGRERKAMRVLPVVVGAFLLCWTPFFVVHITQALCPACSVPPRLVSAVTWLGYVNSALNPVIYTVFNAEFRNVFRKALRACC

[3] = molecular target: T3, D(3) dopamine receptor (Homo sapiens, UniProt P35462); assay: Displacement of [125I]IABN from human dopamine D3 receptor expressed in HEK293 cells; type: cell-based
[4] = molecular target: T3, D(3) dopamine receptor; assay: Antagonist activity at dopamine D3 receptor; type: functional
[5] = molecular target: T4, 5-hydroxytryptamine receptor 2C (Homo sapiens, UniProt P28335); assay: Displacement of [3H]mesulergine from 5HT2C receptor
T4 sequence (P28335 whole entry): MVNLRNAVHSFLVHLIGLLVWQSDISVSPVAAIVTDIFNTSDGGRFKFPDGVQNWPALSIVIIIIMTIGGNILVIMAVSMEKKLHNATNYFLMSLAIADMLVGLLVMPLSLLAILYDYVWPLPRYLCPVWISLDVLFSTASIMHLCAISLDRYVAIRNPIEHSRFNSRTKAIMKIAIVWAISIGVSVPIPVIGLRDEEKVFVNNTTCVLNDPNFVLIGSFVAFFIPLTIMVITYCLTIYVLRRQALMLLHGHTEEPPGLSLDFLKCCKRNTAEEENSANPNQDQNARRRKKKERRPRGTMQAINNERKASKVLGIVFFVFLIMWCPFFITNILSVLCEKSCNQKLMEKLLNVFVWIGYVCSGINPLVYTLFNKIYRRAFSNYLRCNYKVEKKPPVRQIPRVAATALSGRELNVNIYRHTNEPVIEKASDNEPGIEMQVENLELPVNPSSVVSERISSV

[6] = molecular target: T1, D(2) dopamine receptor; assay: Antagonist activity at dopamine D2 receptor; type: functional
[7] = molecular target: 5-hydroxytryptamine receptor 2A (Homo sapiens, UniProt P28223); assay: Displacement of [3H]ketanserin from 5HT2A receptor
[8] = molecular target: D(1A) dopamine receptor (Homo sapiens, UniProt P21728); assay: Displacement of [3H]SCH23390 from dopamine D1 receptor
[9] = molecular target: T5, 5-hydroxytryptamine receptor 1A (Homo sapiens, UniProt P08908); assay: Displacement of [3H]8OH-DPAT from 5HT1A receptor
T5 sequence (P08908 whole entry): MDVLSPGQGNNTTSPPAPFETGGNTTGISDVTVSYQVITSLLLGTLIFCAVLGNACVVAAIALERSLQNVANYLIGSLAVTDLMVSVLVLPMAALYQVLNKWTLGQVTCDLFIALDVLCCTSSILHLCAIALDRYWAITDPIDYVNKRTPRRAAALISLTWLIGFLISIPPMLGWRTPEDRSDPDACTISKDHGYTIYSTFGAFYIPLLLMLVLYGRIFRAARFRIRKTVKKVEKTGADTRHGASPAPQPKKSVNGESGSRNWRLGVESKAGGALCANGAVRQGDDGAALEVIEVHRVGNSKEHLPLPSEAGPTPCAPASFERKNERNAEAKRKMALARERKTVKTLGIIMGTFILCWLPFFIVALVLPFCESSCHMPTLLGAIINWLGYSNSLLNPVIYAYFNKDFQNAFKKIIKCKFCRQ

T3 sequence (P35462 whole entry): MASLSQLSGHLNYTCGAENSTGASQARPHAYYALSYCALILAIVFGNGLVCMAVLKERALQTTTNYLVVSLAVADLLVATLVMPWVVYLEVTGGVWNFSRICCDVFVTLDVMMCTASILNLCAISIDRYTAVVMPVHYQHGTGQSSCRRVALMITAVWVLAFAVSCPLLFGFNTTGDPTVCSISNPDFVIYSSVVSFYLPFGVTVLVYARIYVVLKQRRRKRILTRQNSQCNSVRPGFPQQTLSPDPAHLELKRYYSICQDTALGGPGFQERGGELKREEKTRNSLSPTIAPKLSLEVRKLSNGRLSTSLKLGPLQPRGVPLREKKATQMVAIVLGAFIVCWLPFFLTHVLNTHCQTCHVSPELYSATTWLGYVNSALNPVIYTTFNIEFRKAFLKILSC
T1 sequence (P14416 whole entry): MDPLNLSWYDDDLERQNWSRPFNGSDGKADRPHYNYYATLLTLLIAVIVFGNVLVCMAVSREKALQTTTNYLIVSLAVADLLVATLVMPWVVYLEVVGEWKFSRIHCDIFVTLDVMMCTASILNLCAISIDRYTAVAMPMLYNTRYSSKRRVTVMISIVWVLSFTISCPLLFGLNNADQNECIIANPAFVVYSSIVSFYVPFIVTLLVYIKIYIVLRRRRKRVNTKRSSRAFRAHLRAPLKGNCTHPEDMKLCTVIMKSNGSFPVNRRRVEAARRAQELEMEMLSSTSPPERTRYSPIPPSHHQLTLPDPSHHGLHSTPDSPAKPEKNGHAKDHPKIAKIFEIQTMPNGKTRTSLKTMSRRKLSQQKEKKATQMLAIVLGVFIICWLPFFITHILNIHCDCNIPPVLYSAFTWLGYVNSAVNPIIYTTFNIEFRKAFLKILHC
Sequence of D(1A) dopamine receptor (P21728 whole entry): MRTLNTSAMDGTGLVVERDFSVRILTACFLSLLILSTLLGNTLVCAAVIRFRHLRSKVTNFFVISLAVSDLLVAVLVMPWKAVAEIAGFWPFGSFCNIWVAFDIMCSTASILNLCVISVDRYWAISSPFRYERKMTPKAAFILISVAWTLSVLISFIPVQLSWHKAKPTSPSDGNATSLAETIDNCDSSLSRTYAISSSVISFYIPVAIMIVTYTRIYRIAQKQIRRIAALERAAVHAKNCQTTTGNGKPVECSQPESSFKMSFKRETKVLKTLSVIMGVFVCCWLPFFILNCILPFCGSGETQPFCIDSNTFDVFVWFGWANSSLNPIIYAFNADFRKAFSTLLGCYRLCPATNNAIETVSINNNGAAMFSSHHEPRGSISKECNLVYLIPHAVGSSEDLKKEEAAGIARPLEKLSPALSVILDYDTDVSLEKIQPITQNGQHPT
Sequence of 5-hydroxytryptamine receptor 2A (P28223 whole entry): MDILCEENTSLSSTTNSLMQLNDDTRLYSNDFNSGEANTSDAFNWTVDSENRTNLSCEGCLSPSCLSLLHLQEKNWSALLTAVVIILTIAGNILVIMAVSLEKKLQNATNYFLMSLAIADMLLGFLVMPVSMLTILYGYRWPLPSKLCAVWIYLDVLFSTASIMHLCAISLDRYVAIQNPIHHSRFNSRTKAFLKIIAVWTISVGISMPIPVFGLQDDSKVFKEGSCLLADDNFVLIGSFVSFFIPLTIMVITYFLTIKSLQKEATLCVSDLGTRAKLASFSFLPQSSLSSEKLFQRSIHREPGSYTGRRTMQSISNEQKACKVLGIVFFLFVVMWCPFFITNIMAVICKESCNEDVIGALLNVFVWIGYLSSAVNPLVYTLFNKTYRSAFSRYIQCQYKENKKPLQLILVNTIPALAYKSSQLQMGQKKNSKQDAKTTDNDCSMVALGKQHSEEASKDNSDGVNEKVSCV

Structure (SMILES) | Ki [1] | Ki [3] | other results
O[C@]1(c2ccc(Cl)cc2)C[C@H]2CC[C@@H](C1)N2Cc1c[nH]c2ccccc12 | 33.4 nM | 15.5 nM | Ki [2]: > 5000 nM; IC50 [4]: 12.3 nM; Ki [5]: > 10000 nM; IC50 [6]: 48.3 nM; Ki [7]: 4770 nM; Ki [8]: 1220 nM; Ki [9]: > 10000 nM
O[C@@]1(c2ccc(Cl)c(Cl)c2)C[C@H]2CC[C@@H](C1)N2Cc1c[nH]c2ccccc12 |  | 6.35 nM | IC50 [4]: 10.2 nM; Ki [7]: 2800 nM; Ki [9]: > 10000 nM
O[C@@]1(c2cccc(Cl)c2Cl)C[C@H]2CC[C@@H](C1)N2Cc1c[nH]c2ccccc12 | 545 nM | 480 nM | 
O[C@@]1(c2ccc(F)cc2)C[C@H]2CC[C@@H](C1)N2Cc1c[nH]c2ccccc12 |  | 31 nM | 
O[C@@]1(c2ccc3ccccc3c2)C[C@H]2CC[C@@H](C1)N2Cc1c[nH]c2ccccc12 | 196 nM | 224 nM | 
COc1ccccc1[C@]1(O)C[C@H]2CC[C@@H](C1)N2Cc1c[nH]c2ccccc12 | 2070 nM | 6410 nM | 
CSc1ccc([C@]2(O)C[C@H]3CC[C@@H](C2)N3Cc2c[nH]c3ccccc23)cc1 | 565 nM | 541 nM | 
O[C@@]1(c2ccc(Cl)cc2)C[C@H]2CC[C@@H](C1)N2Cc1n[nH]c2ccccc12 | 225 nM | 84.7 nM | 
COc1ccc2[nH]cc(CN3[C@@H]4CC[C@H]3C[C@](O)(c3ccc(Cl)cc3)C4)c2c1 |  | 21.2 nM | 
COc1ccc2[nH]cc(CN3[C@@H]4CC[C@H]3C[C@](O)(c3ccc(SC)cc3)C4)c2c1 | 554 nM | 1210 nM | 
O[C@@]1(c2ccc(Cl)cc2)C[C@H]2CC[C@@H](C1)N2Cc1csc2ccccc12 | 12.9 nM | 3.62 nM | Ki [2]: 140 nM; IC50 [4]: 4.2 nM; Ki [5]: > 10000 nM; IC50 [6]: 26.2 nM; Ki [8]: 3000 nM; Ki [9]: 1720 nM
O[C@@]1(c2cccc(Cl)c2Cl)C[C@H]2CC[C@@H](C1)N2Cc1csc2ccccc12 | 280 nM | 431 nM | 
O[C@@]1(c2ccc(Cl)cc2)C[C@H]2CC[C@@H](C1)N2Cc1coc2ccccc12 |  | 0.71 nM | IC50 [4]: 0.85 nM; Ki [5]: > 10000 nM
O[C@]1(c2ccc(Cl)c(Cl)c2)C[C@H]2CC[C@@H](C1)N2Cc1coc2ccccc12 | 1.7 nM | 0.34 nM | 
O[C@@]1(c2cccc(Cl)c2Cl)C[C@H]2CC[C@@H](C1)N2Cc1coc2ccccc12 |  | 32.2 nM | 
O[C@@]1(c2ccc(F)cc2)C[C@H]2CC[C@@H](C1)N2Cc1coc2ccccc12 | 4.9 nM | 1.2 nM | 
O[C@@]1(c2ccc(Br)cc2)C[C@H]2CC[C@@H](C1)N2Cc1coc2ccccc12 | 1.5 nM | 0.92 nM | 
O[C@@]1(c2ccc(Cl)cc2)C[C@H]2CC[C@@H](C1)N2Cc1coc2ccc(F)cc12 | 1.2 nM | 0.37 nM | 
O[C@@]1(c2ccc(Cl)cc2)C[C@H]2CC[C@@H](C1)N2Cc1coc2ccc3ccccc3c12 | 11.7 nM | 8.4 nM | 
O[C@@]1(c2ccc(Cl)cc2)C[C@H]2CC[C@@H](C1)N2Cc1coc2c1ccc1ccccc12 | 5.6 nM | 2 nM | 
O[C@@]1(c2ccc(Cl)c(Cl)c2)C[C@H]2CC[C@@H](C1)N2Cc1coc2ccc(F)cc12 | 1.4 nM | 0.53 nM | 
OC1(c2ccc(Cl)cc2)CCN(Cc2c[nH]c3ccccc23)CC1 |  |  | Ki [2]: 1100 nM; IC50 [4]: 90.4 nM
COc1ccc2occ(CN3[C@@H]4CC[C@H]3C[C@](O)(c3ccc(Cl)cc3)C4)c2c1 (single isomer, unassigned) | 1.5 nM | 2.1 nM | 

— ChEMBL document CHEMBL1140093, “Structure-activity relationships for a novel series of dopamine D2-like receptor ligands based on N-substituted 3-aryl-8-azabicyclo[3.2.1]octan-3-ol” (J Med Chem, 2008)
